Assay results: patent US7094797B2, “Organ fibrosis inhibitor” (Ajinomoto Co., Inc., priority 2001, dated 2006)

How the values were obtained:
Hepatic stellate cells = test: PDGF-stimulated DNA synthesis (BrdU uptake, ELISA) of Hepatic stellate cells; format: cell-based, rat; conditions: PDGF 25 ng/ml
Procedure: Hepatic stellate cells were isolated from a male Wistar rat liver and were cultured by the liver perfusion method with pronase E and collagenase. Hepatic stellate cells on day 8 to day 14 were cultured overnight in a culture medium containing 10 vol. % fetal calf serum (FCS). The culture medium was replaced with a culture medium containing 0.1 vol. % FCS, and it was cultured for 48 hours. Subsequently, L-histidine as the test substance was added in an amount to give a concentration of 1 to 30 mM. Then, further, platelet-derived growth factor (PDGF) was added to give a final concentration of 25 ng/ml, and the Hepatic stellate cells were cultured for 24 hours. Six hours before the completion of the culturing, bromodeoxyuridine (BrdU) was added to the culture system. After the completion of the culturing, the BrdU uptake into the cells was assayed by ELISA (enzyme-linked immunosorbent assay). As a control, only PDGF (at the final concentration of 25 ng/ml) was added to the culture medium. When the BrdU uptake in the control was defined as 100%, the value of each of the groups was calculated and the results are shown in FIG. 2.
In the same manner as in Example 2, the effects of L-histidine and D-histidine (individually at 30 mM) on the DNA synthesis of Hepatic stellate cells were compared with each other. When the BrdU uptake in the control was defined as 100%, the value of each of the groups was calculated and is shown in FIG. 3.
Hepatic stellate cells were isolated from male Wistar rat liver, and were cultured by the liver perfusion method with pronase E and collagenase. Hepatic stellate cells on day 8 to day 14 were cultured overnight in a culture medium containing 10 vol. % fetal calf serum (FCS). The culture medium was replaced with a 0.1 vol. % FCS culture medium, and it was cultured for 48 hours. Subsequently, L-cysteine, L-histidine or a composition of L-cysteine and L-histidine as a test substance was added thereto. […] When the BrdU uptake in the control was defined as 100%, the value of each of the groups was calculated and the results are shown in FIG. 4.

[1] = test system: Human kidney mesangial cells; test: DNA synthesis (BrdU uptake, ELISA) of human kidney mesangial cells stimulated with FCS; format: cell-based; conditions: 10 or 30 mM, FCS 5 vol. %, 24 hours; FIG. 6
Procedure: Human kidney mesangial cells were cultured overnight in a culture medium containing 10 vol. % fetal calf serum (FCS). Subsequently, the culture medium was replaced with a 0.1 vol. % FCS culture medium, and it was cultured for 24 hours. Subsequently, L-histidine (His) as a test substance was added in an amount to give a concentration of 10 or 30 mM. Then, further, FCS was added to give a final concentration of 5 vol. %, and the mesangial cells were cultured for 24 hours. Six hours before the completion of the culturing, bromodeoxyuridine (BrdU) was added to the culture system. After the completion of the culturing, the BrdU uptake into the cells was assayed by ELISA (enzyme-linked immunosorbent assay). As a control, only 5 vol. % FCS was added to the culture medium. When the BrdU uptake in the control was defined as 100%, the value of each of the groups was calculated and the results are shown in FIG. 6.

[2] = test system: Human normal lung fibroblast cells (HLF-1 cell); test: DNA synthesis (BrdU uptake, ELISA) of human normal lung fibroblast cells stimulated with PDGF or FCS; format: cell-based; conditions: HLF-1, 10 or 30 mM, 24 hours
Procedure: Human normal lung fibroblast cells (HLF-1 cell) were cultured overnight in a culture medium containing 10 vol. % fetal calf serum (FCS). Subsequently, the culture medium was replaced with a 0.1 vol. % FCS culture medium, and it was cultured for 24 hours. Subsequently, L-histidine (His) as the test substance was added so that the concentration was 10 or 30 mM. Then, further, platelet-derived growth factor (PDGF) was added to give a final concentration of 25 ng/ml or FCS was added to give a final concentration of 5 vol. %, and the HLF-1 cells were cultured for 24 hours. Six hours before the completion of the culturing, bromodeoxyuridine (BrdU) was added to the culture system. After the completion of the culturing, the BrdU uptake into the cells was assayed by ELISA (enzyme-linked immunosorbent assay). As a control, only PDGF (at the final concentration of 25 ng/ml) or FCS (at the final concentration of 5 vol. %) was added to the culture medium.

[3] = test system: liver fibrosis induced by dimethylnitroseamine (DMN) in SD rat; test: DMN-induced liver fibrosis in rat, amount of hydroxyproline (Hyp) in the liver; format: in vivo; conditions: male SD rat, DMN 10 mg/kg i.p. three times weekly for 3 weeks; His 0.2, 0.5, 1.0, 2.0 wt. % in feed, oral; day 21; FIG. 1
Procedure: Dimethylnitroseamine (DMN) was administered intraperitoneally at 10 mg/kg three times weekly to a male 9-week-old SD rat for 3 weeks to induce liver fibrosis. A commercially available feed or experimental diets prepared by adding L-histidine (His) as a test substance at concentrations of 0.2, 0.5, 1.0, and 2.0 wt. % to a commercially available feed were fed beginning on the day of start of DMN administration and thereafter. On day 21 from the start of the DMN administration, the liver was collected to assay the amount of hydroxyproline (Hyp) in the liver as a liver fibrosis marker, using an amino acid analyzer.

[4] = test system: liver damage due to D-galactosamine administration; conditions: rat given L-histidine; cited from earlier work
[5] = 30 mM, levels of suppression of L- and D-form almost equal, FIG. 3

SMILES	DNA synthesis of Hepatic stellate cells activated with PDGF (BrdU uptake) (Hepatic stellate cells; [5])	DNA synthesis of Hepatic stellate cells activated with PDGF (BrdU uptake) (Hepatic stellate cells; 1 to 30 mM, 24 hours, dose-dependent, FIG. 2)	DNA synthesis of human kidney mesangial cell with FCS (BrdU uptake) [1]	DNA synthesis of human normal lung fibroblast cell with FCS (BrdU uptake) ([2]; FCS 5 vol. %, FIG. 5b)	DNA synthesis of human normal lung fibroblast cell with PDGF (BrdU uptake) ([2]; PDGF 25 ng/ml, FIG. 5a)	amount of Hyp in the liver (liver fibrosis marker) [3]	liver damage due to D-galactosamine administration [4]
N[C@@H](Cc1c[nH]cn1)C(=O)O [L-histidine]	strongly suppressed	strongly suppressed	strongly suppressed	strongly suppressed	strongly suppressed	significantly decreased	can be reduced
N[C@H](Cc1c[nH]cn1)C(=O)O [D-histidine]	strongly suppressed	–	–	–	–	–	–
